Results from PubChem BioAssay AID2060912 (Molecular Pharmacology Branch, DTP, NCI, 2025).

Test system: HUVEC/MSC spheroids viability
Assay: Human HUVEC/MSC cell line growth inhibition [KRAS2];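 as to viability, T/C: percent of DMSO vehicle control luminescence so 100% = untreated viability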
Conditions: for viability, T/C: stronger effect = lower value; for IC50: curve of first compound
In short: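 Growth/viability of tumour-free HUVEC–hMSC spheroids was measured after exposure to targeted small molecules and KRAS inhibitors, singly or in combination. Agents were diluted in half-log steps from Cmax-based top concentrations, capped at 10 microM without known Cmax.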

[1] = second compound 0.0316 µM, first compound 0.0316 µM
[2] = second compound 0.0316 µM, first compound 0.1 µM
[3] = second compound 0.0316 µM, first compound 0.316 µM
[4] = second compound 0.0316 µM, first compound 1 µM
[5] = second compound 0.0316 µM, first compound 3.16 µM
[6] = second compound 0.0316 µM, first compound 10 µM
[7] = second compound 0.1 µM, first compound 0.0316 µM
[8] = second compound 0.1 µM, first compound 0.1 µM
[9] = second compound 0.1 µM, first compound 0.316 µM
[10] = second compound 0.1 µM, first compound 1 µM
[11] = second compound 0.1 µM, first compound 3.16 µM
[12] = second compound 0.1 µM, first compound 10 µM
[13] = second compound 0.316 µM, first compound 0.0316 µM
[14] = second compound 0.316 µM, first compound 0.1 µM
[15] = second compound 0.316 µM, first compound 0.316 µM
[16] = second compound 0.316 µM, first compound 1 µM
[17] = second compound 0.316 µM, first compound 3.16 µM
[18] = second compound 0.316 µM, first compound 10 µM
[19] = second compound 1 µM, first compound 0.0316 µM
[20] = second compound 1 µM, first compound 0.1 µM
[21] = second compound 1 µM, first compound 0.316 µM
[22] = second compound 1 µM, first compound 1 µM
[23] = second compound 1 µM, first compound 3.16 µM
[24] = second compound 1 µM, first compound 10 µM
[25] = second compound 3.16 µM, first compound 0.0316 µM
[26] = second compound 3.16 µM, first compound 0.1 µM
[27] = second compound 3.16 µM, first compound 0.316 µM
[28] = second compound 3.16 µM, first compound 1 µM
[29] = second compound 3.16 µM, first compound 3.16 µM
[30] = second compound 3.16 µM, first compound 10 µM
[31] = second compound 10 µM, first compound 0.0316 µM
[32] = second compound 10 µM, first compound 0.1 µM
[33] = second compound 10 µM, first compound 0.316 µM
[34] = second compound 10 µM, first compound 1 µM
[35] = second compound 10 µM, first compound 3.16 µM
[36] = second compound 10 µM, first compound 10 µM

CC(C)n1nc(-c2ccc3oc(N)nc3c2)c2c(N)ncnc21 was tested, and the viability, T/C (compound 0.001 µM) was 68.3% [middle of 5 runs], the viability, T/C (compound 0.00316 µM) was 51.2% [middle of 5 runs] and the viability, T/C (compound 0.01 µM) was 47.9% [middle of 5 runs]. The viability, T/C (compound 0.0316 µM) was 47.5% [middle of 5 runs] and the viability, T/C (compound 0.1 µM) was 43.9% [middle of 5 runs].
Compound COC(=O)c1ccc2c(C(=Nc3ccc(N(C)C(=O)CN4CCN(C)CC4)cc3)c3ccccc3)c(O)[nH]c2c1 + C=CC(=O)N1CCN(c2nc(OCC3CCCN3C)nc3c2CCN(c2cccc4cccc(C)c24)C3)CC1CC#N has an IC50 (second compound 0.00949 µM) of 2.18 µM, an IC50 (second compound 0.03 µM) of 2.22 µM and an IC50 (second compound 0.0949 µM) of 2.91 µM. For the same compound, the IC50 (second compound 0.3 µM) was 2.81 µM, the IC50 (second compound 0.949 µM) was 1.64 µM and the IC50 (second compound 3 µM) was 0.894 µM. It also gave a viability, T/C (second compound 0.00949 µM, first compound 0.0316 µM) of 91.3%, a viability, T/C (second compound 0.00949 µM, first compound 0.1 µM) of 82.5% and a viability, T/C (second compound 0.00949 µM, first compound 0.316 µM) of 89.5%. For the same compound, the viability, T/C (second compound 0.00949 µM, first compound 1 µM) was 57.8%, the viability, T/C (second compound 0.00949 µM, first compound 3.16 µM) was 45.7% and the viability, T/C (second compound 0.00949 µM, first compound 10 µM) was 0.43%. The viability, T/C (second compound 0.03 µM, first compound 0.0316 µM) was 81.1%, the viability, T/C (second compound 0.03 µM, first compound 0.1 µM) was 102% and the viability, T/C (second compound 0.03 µM, first compound 0.316 µM) was 76.4%. The viability, T/C (second compound 0.03 µM, first compound 1 µM) was 52.6%, the viability, T/C (second compound 0.03 µM, first compound 3.16 µM) was 52.6% and the viability, T/C (second compound 0.03 µM, first compound 10 µM) was 0.35%. For the same compound, the viability, T/C (second compound 0.0949 µM, first compound 0.0316 µM) was 76%, the viability, T/C (second compound 0.0949 µM, first compound 0.1 µM) was 78.3% and the viability, T/C (second compound 0.0949 µM, first compound 0.316 µM) was 93.3%. It also gave a viability, T/C (second compound 0.0949 µM, first compound 1 µM) of 68.1%, a viability, T/C (second compound 0.0949 µM, first compound 3.16 µM) of 49.2% and a viability, T/C (second compound 0.0949 µM, first compound 10 µM) of 0.37%. For the same compound, the viability, T/C (second compound 0.3 µM, first compound 0.0316 µM) was 60.5%, the viability, T/C (second compound 0.3 µM, first compound 0.1 µM) was 78.7% and the viability, T/C (second compound 0.3 µM, first compound 0.316 µM) was 78.3%. For the same compound, the viability, T/C (second compound 0.3 µM, first compound 1 µM) was 70.3%, the viability, T/C (second compound 0.3 µM, first compound 3.16 µM) was 47.7% and the viability, T/C (second compound 0.3 µM, first compound 10 µM) was 0.35%. The viability, T/C (second compound 0.949 µM, first compound 0.0316 µM) was 57.5%, the viability, T/C (second compound 0.949 µM, first compound 0.1 µM) was 73.2% and the viability, T/C (second compound 0.949 µM, first compound 0.316 µM) was 91.1%. The viability, T/C (second compound 0.949 µM, first compound 1 µM) was 55.5%, the viability, T/C (second compound 0.949 µM, first compound 3.16 µM) was 34.6% and the viability, T/C (second compound 0.949 µM, first compound 10 µM) was 0.31%. It also gave a viability, T/C (second compound 3 µM, first compound 0.0316 µM) of 65.2%, a viability, T/C (second compound 3 µM, first compound 0.1 µM) of 96.5% and a viability, T/C (second compound 3 µM, first compound 0.316 µM) of 84.3%. It also gave a viability, T/C (second compound 3 µM, first compound 1 µM) of 46.6%, a viability, T/C (second compound 3 µM, first compound 3.16 µM) of 0.43% and a viability, T/C (second compound 3 µM, first compound 10 µM) of 0.33%.
COc1cc2nccc(Oc3ccc(NC(=O)C4(C(=O)Nc5ccc(F)cc5)CC4)cc3)c2cc1OC + CNCc1ccccc1-c1csc(C(C)Nc2nc(C)nc3cc(OC)c(OC)cc23)c1 showed an IC50 (second compound 0.0316 µM) of 5.9 µM, an IC50 (second compound 0.1 µM) of 5.67 µM and an IC50 (second compound 0.316 µM) of 6.1 µM. The IC50 (second compound 1 µM) was 4.98 µM, the IC50 (second compound 3.16 µM) was 1.84 µM and the IC50 (second compound 10 µM) was < 0.0316 µM. For the same compound, the viability, T/C [1] was 87.7%, the viability, T/C [2] was 86.5% and the viability, T/C [3] was 78.2%. The viability, T/C [4] was 65.8%, the viability, T/C [5] was 84.2% and the viability, T/C [6] was 24.3%. For the same compound, the viability, T/C [7] was 67%, the viability, T/C [8] was 88.8% and the viability, T/C [9] was 87%. The viability, T/C [10] was 81%, the viability, T/C [11] was 78.2% and the viability, T/C [12] was 22.7%. It also gave a viability, T/C [13] of 86.6%, a viability, T/C [14] of 90.9% and a viability, T/C [15] of 72%. It also gave a viability, T/C [16] of 71.2%, a viability, T/C [17] of 81.4% and a viability, T/C [18] of 27.1%. For the same compound, the viability, T/C [19] was 69.6%, the viability, T/C [20] was 67.3% and the viability, T/C [21] was 66.6%. The viability, T/C [22] was 97.6%, the viability, T/C [23] was 99.7% and the viability, T/C [24] was 3.5%. The viability, T/C [25] was 96.7%, the viability, T/C [26] was 104% and the viability, T/C [27] was 108%. The viability, T/C [28] was 115%, the viability, T/C [29] was 0.31% and the viability, T/C [30] was 0.22%. The viability, T/C [31] was 0.36%, the viability, T/C [32] was 0.41% and the viability, T/C [33] was 0.99%. The viability, T/C [34] was 0.46%, the viability, T/C [35] was 0.43% and the viability, T/C [36] was 0.25%.
For COc1cc2nccc(Oc3ccc(NC(=O)C4(C(=O)Nc5ccc(F)cc5)CC4)cc3)c2cc1OC + CC1OCC2(CCN(c3cnc(Sc4ccnc(N)c4Cl)c(N)n3)CC2)C1N, the IC50 (second compound 0.0316 µM) was 5.72 µM, the IC50 (second compound 0.1 µM) was 4.56 µM and the IC50 (second compound 0.316 µM) was 5.32 µM. The IC50 (second compound 1 µM) was 4.1 µM, the IC50 (second compound 3.16 µM) was 3.61 µM and the IC50 (second compound 10 µM) was 3.12 µM. It also gave a viability, T/C [1] of 111%, a viability, T/C [2] of 87.5% and a viability, T/C [3] of 79.3%. The viability, T/C [4] was 103%, the viability, T/C [5] was 73.7% and the viability, T/C [6] was 27.6%. It also gave a viability, T/C [7] of 96.5%, a viability, T/C [8] of 93% and a viability, T/C [9] of 100%. For the same compound, the viability, T/C [10] was 80.8%, the viability, T/C [11] was 66.5% and the viability, T/C [12] was 17.4%. It also gave a viability, T/C [13] of 88.6%, a viability, T/C [14] of 89.9% and a viability, T/C [15] of 67.9%. For the same compound, the viability, T/C [16] was 83%, the viability, T/C [17] was 75% and the viability, T/C [18] was 19.6%. For the same compound, the viability, T/C [19] was 72.6%, the viability, T/C [20] was 75.6% and the viability, T/C [21] was 82.4%. It also gave a viability, T/C [22] of 80%, a viability, T/C [23] of 62.3% and a viability, T/C [24] of 8.31%. The viability, T/C [25] was 72.5%, the viability, T/C [26] was 79% and the viability, T/C [27] was 77.5%. For the same compound, the viability, T/C [28] was 62.6%, the viability, T/C [29] was 58.6% and the viability, T/C [30] was 5.57%. For the same compound, the viability, T/C [31] was 67.8%, the viability, T/C [32] was 72% and the viability, T/C [33] was 73.2%. For the same compound, the viability, T/C [34] was 61.9%, the viability, T/C [35] was 50.7% and the viability, T/C [36] was 3.16%.
